For test [1], the target named is Sodium-dependent serotonin transporter (Rattus norvegicus, UniProt P31652). Kind of test: Activity at SERT in rat synaptosomes obtained from whole brain minus striatum and cerebellum assessed as release of [3H]5-HT by liquid scintillation counting method. The test is classed as subcellular.
Test [2] is described as follows: Activity at NET in rat synaptosomes obtained from whole brain minus striatum and cerebellum assessed as release of [3H]MPP+ by liquid scintillation counting method. The test is classed as subcellular.
For test [3], the species on record is Rattus norvegicus. Kind of test: Selectivity ratio of EC50 for DAT in rat synaptosomes to EC50 for NET in rat synaptosomes. The test is classed as subcellular.
The species named for test [4] is Rattus norvegicus. The test is described as follows: Selectivity ratio of EC50 for DAT in rat synaptosomes to EC50 for SERT in rat synaptosomes. The test is classed as subcellular.
For test [5], the target named is T1, 5-hydroxytryptamine receptor 2A (Homo sapiens, UniProt P28223). Kind of test: Agonist activity at human 5-HT2A receptor expressed in HEK293 cells assessed as induction of calcium mobilization incubated for 15 mins by calcium 5 dye-based fluorescence assay. The test is classed as cell-based. (In general: Calcium flux is commonly read through the fluorescence of an indicator in the cells.)

For test [6], the species on record is Rattus norvegicus. Kind of test: Selectivity ratio of EC50 for NET in rat synaptosomes to EC50 for SERT in rat synaptosomes. The test is classed as subcellular.
For test [7], the species on record is Rattus norvegicus. The test is described as follows: Selectivity ratio of EC50 for NET in rat synaptosomes to EC50 for DAT in rat synaptosomes. The test is classed as subcellular.
Test [8] addresses T1, 5-hydroxytryptamine receptor 2A. The test is described as follows: Agonist activity at human 5-HT2A receptor expressed in HEK293 cells by [3H]-inositol phosphate accumulation assay. The test is classed as cell-based.
In test [9] the target is 5-hydroxytryptamine receptor 2B (Homo sapiens, UniProt P41595). Kind of test: Agonist activity at human 5-HT2B receptor expressed in HEK293 cells by [3H]-inositol phosphate accumulation assay. The test is classed as cell-based.
Test [10] deals with T2, 5-hydroxytryptamine receptor 2C (Homo sapiens, UniProt P28335).
T2 sequence (P28335 whole entry): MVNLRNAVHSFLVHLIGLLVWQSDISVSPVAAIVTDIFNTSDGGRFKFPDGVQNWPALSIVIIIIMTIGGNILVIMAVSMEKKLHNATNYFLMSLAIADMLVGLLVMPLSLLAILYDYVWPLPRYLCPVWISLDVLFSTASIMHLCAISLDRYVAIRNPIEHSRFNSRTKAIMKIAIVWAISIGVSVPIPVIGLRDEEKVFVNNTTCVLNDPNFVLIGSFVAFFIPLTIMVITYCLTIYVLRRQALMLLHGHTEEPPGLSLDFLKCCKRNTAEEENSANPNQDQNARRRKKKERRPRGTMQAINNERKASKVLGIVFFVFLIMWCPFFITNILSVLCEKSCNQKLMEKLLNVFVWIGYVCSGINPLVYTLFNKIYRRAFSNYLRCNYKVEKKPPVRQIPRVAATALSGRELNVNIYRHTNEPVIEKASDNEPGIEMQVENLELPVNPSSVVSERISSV
Kind of test: Agonist activity at human 5-HT2C receptor expressed in HEK293 cells by [3H]-inositol phosphate accumulation assay. The test is classed as functional, cell-based.

Test [11] deals with T3, 5-hydroxytryptamine receptor 2C (Homo sapiens) (UniProt P28335).
T3 sequence (whole entry): T2 sequence (P28335 whole entry)
The test is described as follows: Agonist activity at human 5-HT2C receptor expressed in HEK293 cells by [3H]-inositol phosphate accumulation assay relative to 5-HT. The test is classed as functional, cell-based.

The target in test [12] is T2, 5-hydroxytryptamine receptor 2C. The test is described as follows: Agonist activity at human 5-HT2C receptor expressed in HEK293 cells assessed as induction of calcium mobilization incubated for 15 mins by calcium 5 dye-based fluorescence assay. The test is classed as functional, cell-based.

T1 sequence (P28223 whole entry): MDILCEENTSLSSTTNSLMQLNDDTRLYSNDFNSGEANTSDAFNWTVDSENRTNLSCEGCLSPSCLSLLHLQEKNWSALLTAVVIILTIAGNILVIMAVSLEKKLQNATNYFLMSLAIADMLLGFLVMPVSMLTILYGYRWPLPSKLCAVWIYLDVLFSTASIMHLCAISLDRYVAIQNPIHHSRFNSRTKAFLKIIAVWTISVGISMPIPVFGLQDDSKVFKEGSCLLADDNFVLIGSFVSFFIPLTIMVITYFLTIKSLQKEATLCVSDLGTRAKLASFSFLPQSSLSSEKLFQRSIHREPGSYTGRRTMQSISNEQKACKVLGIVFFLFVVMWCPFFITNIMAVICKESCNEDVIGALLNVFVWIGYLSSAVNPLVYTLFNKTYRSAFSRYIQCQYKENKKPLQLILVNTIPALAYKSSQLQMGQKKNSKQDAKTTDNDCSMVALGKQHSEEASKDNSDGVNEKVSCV
Chain of Sodium-dependent serotonin transporter (P31652 whole entry): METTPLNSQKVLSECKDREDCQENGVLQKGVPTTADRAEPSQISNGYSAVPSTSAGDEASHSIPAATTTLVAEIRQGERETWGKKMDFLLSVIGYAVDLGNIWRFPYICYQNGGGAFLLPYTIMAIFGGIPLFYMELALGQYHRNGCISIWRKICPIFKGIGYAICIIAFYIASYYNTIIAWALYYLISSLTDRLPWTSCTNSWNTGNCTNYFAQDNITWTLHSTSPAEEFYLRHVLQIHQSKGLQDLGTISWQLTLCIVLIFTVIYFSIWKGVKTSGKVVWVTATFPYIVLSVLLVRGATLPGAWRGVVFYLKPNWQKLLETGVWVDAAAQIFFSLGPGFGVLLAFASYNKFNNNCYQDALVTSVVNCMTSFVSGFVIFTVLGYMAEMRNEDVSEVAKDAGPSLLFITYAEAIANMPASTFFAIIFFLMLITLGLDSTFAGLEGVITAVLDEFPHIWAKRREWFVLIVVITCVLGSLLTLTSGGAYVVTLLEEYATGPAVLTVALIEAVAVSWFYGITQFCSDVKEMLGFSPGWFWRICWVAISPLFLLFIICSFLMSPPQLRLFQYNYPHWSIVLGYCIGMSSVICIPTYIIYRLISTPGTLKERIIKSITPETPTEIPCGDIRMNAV
Chain of 5-hydroxytryptamine receptor 2B (P41595 whole entry): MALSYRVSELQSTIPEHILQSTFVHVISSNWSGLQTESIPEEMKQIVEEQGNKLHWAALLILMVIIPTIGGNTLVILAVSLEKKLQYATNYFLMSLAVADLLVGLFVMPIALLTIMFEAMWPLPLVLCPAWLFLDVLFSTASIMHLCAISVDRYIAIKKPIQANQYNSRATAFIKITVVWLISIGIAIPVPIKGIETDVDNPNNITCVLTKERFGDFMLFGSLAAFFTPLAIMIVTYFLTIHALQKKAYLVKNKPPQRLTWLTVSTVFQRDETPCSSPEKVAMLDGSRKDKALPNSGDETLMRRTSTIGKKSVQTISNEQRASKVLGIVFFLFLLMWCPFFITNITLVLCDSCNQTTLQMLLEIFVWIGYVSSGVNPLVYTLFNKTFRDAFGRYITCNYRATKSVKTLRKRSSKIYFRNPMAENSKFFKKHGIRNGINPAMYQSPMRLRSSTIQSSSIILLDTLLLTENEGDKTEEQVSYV

What is called EC50 is the concentration at which the effect is half-maximal. For `CC(N)/C=C\c1ccccc1` (stereo not drawn), the figures for the EC50 in test [1] and in [2] were above 10000 nM and 301 nM, respectively. Moreover, the Ratio EC50 in the test listed under Rattus norvegicus [3] was found to be 3.7.
As to `CC(N)C/C=C/c1ccccc1` (racemic), the EC50 in test [2] amounted to 239 nM. Further, the Ratio EC50 in the test filed under Rattus norvegicus [4] came to 5.
Regarding `C[C@@H](N)C/C=C/c1ccccc1`, the results for the EC50 in test [2] and in test [5] were 279 nM and above 10000 nM, respectively. Besides, the Ratio EC50 in the test listed under Rattus norvegicus [4] stood at 5.
With `C[C@@H](N)C/C=C\c1ccccc1`, in test [2], the EC50 came to 211 nM. In addition, the Ratio EC50 in the test listed under Rattus norvegicus [4] is 1.2; in the test filed under Rattus norvegicus [3], 6.7.
Take `C[C@H](N)C/C=C/c1ccccc1`: the concentration for a half-maximal effect (EC50) in test [2] amounted to 138 nM. The figures for the Ratio EC50 in the test filed under Rattus norvegicus [4] and in the test listed under Rattus norvegicus [6] were 5 and 3.5, respectively.
On to `CC(N)C/C=C\c1ccccc1` (racemic), for which the EC50 in test [2] came to 621 nM. The Ratio EC50 in the test listed under Rattus norvegicus [4] is 1.4.
Turning to `CC(N)CC#Cc1ccccc1` (racemic), in [2], the EC50 turned out to be 2980 nM. Besides, the Ratio EC50 is 2.6 in the test filed under Rattus norvegicus [4] and 3 in the test filed under Rattus norvegicus [7].
The term Emax denotes the size of the effect at its maximum, as opposed to the concentration needed. Take `CC(N)Cc1ccc2ccccc2c1` (stereo not drawn): the EC50 in test [8] came out at 466 nM; in test [9], 40 nM; in [10], 2.3 nM. In addition, in test [11], the Emax was determined as 20%.
Turning to `C[C@@H](N)CC#Cc1ccccc1`, the EC50 was 496 nM in test [2] and above 10000 nM in [5]. Besides, in the test listed under Rattus norvegicus [4], the Ratio EC50 was found to be 2.3.
As to `CC(N)/C=C/c1ccccc1` (stereo not drawn), the EC50 was above 10000 nM in test [1] and 308 nM in test [2]. In addition, the Ratio EC50 in the test filed under Rattus norvegicus [3] was 2.2.
`C[C@H](N)C/C=C\c1ccccc1`: the figures for the EC50 in test [1], in [2] and in test [12] were 663 nM, 170 nM and above 10000 nM, respectively.
With `C[C@H](N)CC#Cc1ccccc1`, the EC50 in test [2] was determined as 784 nM.

Values taken from ChEMBL document CHEMBL3853267 (Medchemcomm, 2016).
